The target in this assay is T1, recombinant human PLK1[2-369]T210D (Homo sapiens, UniProt P53350, T210D).
T1 construct: recombinant human PLK1[2-369]T210D; Smt (SUMO) fusion partner (N, cleaved yes); host or cells: E. coli
T1 sequence (P53350 2-369 T210D): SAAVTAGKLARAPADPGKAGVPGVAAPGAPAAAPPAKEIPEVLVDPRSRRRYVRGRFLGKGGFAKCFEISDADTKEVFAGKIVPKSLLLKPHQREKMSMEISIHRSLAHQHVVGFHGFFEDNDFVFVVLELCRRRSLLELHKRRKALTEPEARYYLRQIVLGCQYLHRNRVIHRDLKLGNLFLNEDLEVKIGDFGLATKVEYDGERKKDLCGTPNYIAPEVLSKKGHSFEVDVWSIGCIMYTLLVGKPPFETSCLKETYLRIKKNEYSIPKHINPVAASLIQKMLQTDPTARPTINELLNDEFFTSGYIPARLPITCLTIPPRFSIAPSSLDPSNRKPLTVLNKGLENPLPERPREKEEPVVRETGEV
Put plainly: PLK1 DELFIA Kinase Assay. It is filed as biochemical. Conditions: 50 μM ATP, 2 μM peptide substrate, 0.3 nM enzyme, 90 minutes at room temperature. The essentials:
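E. coli-expressed human PLK1, cleaved from an Smt fusion after Ni2+ purification, is reacted with or without inhibitor for 90 minutes at room temperature and stopped with EDTA. Product is captured on Neutravidin plates and quantified by europium DELFIA time-resolved fluorescence.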
For `CC(C)(C)C(=O)Nc1ccc(Nc2ncc3c(n2)-c2ccc(Cl)cc2NC(=S)C3)cn1` [Compound I-102, N-{5-[(9-chloro-6-thioxo-6,7-dihydro-5H-pyrimido[5,4-d][1]benzazepin-2-yl)amino]pyridin-2-yl}-2,2-dimethylpropanamide], the IC50 was 5 to 25 nM.

In the case of `Cc1ccc(Nc2ncc3c(n2)-c2ccc(Cl)cc2NC(=S)C3)c(C)n1` [Compound I-81, 9-chloro-2-[(2,6-dimethylpyridin-3-yl)amino]-5,7-dihydro-6H-pyrimido[5,4-d][1]benzazepine-6-thione], the IC50 is under 5 nM. To `Cc1nc(N2CCCC(N(C)C)C2)ccc1Nc1ncc2c(n1)-c1ccc(C(F)(F)F)cc1NC(=S)C2` (centres unmarked) [Compound I-9, 2-({6-[3-(dimethylamino)piperidin-1-yl]-2-methylpyridin-3-yl}amino)-9-(trifluoromethyl)-5,7-dihydro-6H-pyrimido[5,4-d][1]benzazepine-6-thione] belongs under 5 nM; to `Cc1ncc(N2CCN(C)CC2)cc1Nc1ncc2c(n1)-c1ccc(C(F)(F)F)cc1NC(=S)C2` [Compound I-46, 2-{[2-methyl-5-(4-methylpiperazin-1-yl)pyridin-3-yl]amino}-9-(trifluoromethyl)-5,7-dihydro-6H-pyrimido[5,4-d][1]benzazepine-6-thione], under 5 nM. To `Cc1ncc(CCN2CCN(C)CC2)cc1Nc1ncc2c(n1)-c1ccc(C(F)(F)F)cc1NC(=S)C2` [Compound I-26, 2-({2-methyl-5-[2-(4-methylpiperazin-1-yl)ethyl]pyridin-3-yl}amino)-9-(trifluoromethyl)-5,7-dihydro-6H-pyrimido[5,4-d][1]benzazepine-6-thione] belongs under 5 nM; to `Cc1ncc(CCCN)cc1Nc1ncc2c(n1)-c1ccc(C(F)(F)F)cc1NC(=S)C2` [Compound I-90, 2-{[5-(3-aminopropyl)-2-methylpyridin-3-yl]amino}-9-(trifluoromethyl)-5,7-dihydro-6H-pyrimido[5,4-d][1]benzazepine-6-thione], under 5 nM; to `COc1ncc(Nc2ncc3c(n2)-c2ccc(Cl)cc2NC(=S)C3)cc1CCCN(C)C` [Compound I-8, 9-chloro-2-({5-[3-(dimethylamino)propyl]-6-methoxypyridin-3-yl}amino)-5,7-dihydro-6H-pyrimido[5,4-d][1]benzazapine-6-thione], under 5 nM. With `Cc1ncc(CCN2CCC(N(C)C)CC2)cc1Nc1ncc2c(n1)-c1ccc(C(F)(F)F)cc1NC(=S)C2` [Compound I-52, 2-[(5-{2-[4-(dimethylamino)piperidin-1-yl]ethyl}-2-methylpyridin-3-yl)amino]-9-(trifluoromethyl)-5,7-dihydro-6H-pyrimido[5,4-d][1]benzazepine-6-thione] the figure was under 5 nM; with `Cc1ccnc(C)c1Nc1ncc2c(n1)-c1ccc(Cl)cc1NC(=S)C2` [Compound I-37, 9-chloro-2-[(2,4-dimethylpyridin-3-yl)amino]-5,7-dihydro-6H-pyrimido[5,4-d][1]benzazepine-6-thione], over 25 nM. Turning to `Cc1ncc(Nc2ncc3c(n2)-c2ccc(Cl)cc2NC(=S)C3)cc1CCCN(C)C` [Compound I-94, 9-chloro-2-({5-[3-(dimethylamino)propyl]-6-methylpyridin-3-yl}amino)-5,7-dihydro-6H-pyrimido[5,4-d][1]benzazepine-6-thione], the IC50 was under 5 nM.

Turning to `Cc1nc(NC2CCNCC2)ccc1Nc1ncc2c(n1)-c1ccc(C(F)(F)F)cc1NC(=S)C2` [Compound I-67, 2-{[2-methyl-6-(piperidin-4-ylamino)pyridin-3-yl]amino}-9-(trifluoromethyl)-5,7-dihydro-6H-pyrimido[5,4-d][1]benzazepine-6-thione], the IC50 was under 5 nM.

Take `Cc1nc(N2CCOCC2)ccc1Nc1ncc2c(n1)-c1ccc(C(F)(F)F)cc1NC(=S)C2` [Compound I-100, 2-[(2-methyl-6-morpholin-4-ylpyridin-3-yl)amino]-9-(trifluoromethyl)-5,7-dihydro-6H-pyrimido[5,4-d][1]benzazepine-6-thione]: the IC50 is under 5 nM. With `Cc1nc(C(=O)NC2CCN(C)CC2)ccc1Nc1ncc2c(n1)-c1ccc(C(F)(F)F)cc1NC(=S)C2` [Compound I-123, 6-methyl-N-(1-methylpiperidin-4-yl)-5-{[6-thioxo-9-(trifluoromethyl)-6,7-dihydro-5H-pyrimido[5,4-d][1]benzazepin-2-yl]amino}pyridine-2-carboxamide] the figure was 5 to 25 nM; with `Nc1ccc(Nc2ncc3c(n2)-c2ccc(Cl)cc2NC(=S)C3)cn1` [Compound I-68, 2-[(6-aminopyridin-3-yl)amino]-9-chloro-5,7-dihydro-6H-pyrimido[5,4-d][1]benzazepine-6-thione], under 5 nM. To `CCN1CCN(c2cnc(C)c(Nc3ncc4c(n3)-c3ccc(C(F)(F)F)cc3NC(=S)C4)c2)C[C@@H]1C` [Compound I-2, 2-({5-[(3S)-4-ethyl-3-methylpiperazin-1-yl]-2-methylpyridin-3-yl}amino)-9-(trifluoromethyl)-5,7-dihydro-6H-pyrimido[5,4-d][1]benzazepine-6-thione] belongs under 5 nM; to `Cc1ncc(CCN2CCOCC2)cc1Nc1ncc2c(n1)-c1ccc(Cl)cc1NC(=S)C2` [Compound I-72, 9-chloro-2-{[2-methyl-5-(2-morpholin-4-ylethyl)pyridin-3-yl]amino}-5,7-dihydro-6H-pyrimido[5,4-d][1]benzazepine-6-thione], under 5 nM; to `S=C1Cc2cnc(Nc3cncc(CCN4CCOCC4)c3)nc2-c2ccc(Cl)cc2N1` [Compound I-78, 9-chloro-2-{[5-(2-morpholin-4-ylethyl)pyridin-3-yl]amino}-5,7-dihydro-6H-pyrimido[5,4-d][1]benzazepine-6-thione], under 5 nM.

(Values after US7998952B2, “Thiolactams and uses thereof” (Millennium Pharmaceuticals, Inc., priority 2008, dated 2011).)
